Structures can show the parent of a compound that is named as a salt.

The term ED50 denotes the midpoint of the dose-response relation. In general, LD50 refers to the dose expected to kill half of the subjects tested. The low end stands for greater toxicity, the high end for lower toxicity.

The subject of data set [1] is sensitized rats (passive cutaneous anaphylaxis). Put plainly: passive cutaneous anaphylaxis (PCA) in sensitized rats. The data set is classed as in vivo. The settings on record: po; rat p.o.
Data set [2] deals with sensitized rats (passive lung anaphylaxis). In words: animal or person. The conditions noted are these: Rattus norvegicus, iv, read-out: PLA ED50. The protocol:
(a) Tests in sensitized rats were performed after passive sensitization of the animals by IgE-antibodies and subsequent antigen challenge. In this manner a passive cutaneous anaphylaxis (GOOSE et al. (1969): Immunology 16, 749) (PCA) and a passive lung anaphylaxis ([…] et al. (1975): Br. J. Pharmac. 55, 57) (PLA, experimental asthma) could be provoked.

A short description of data set [3]: in vivo. The conditions noted are these: po, mouse p.o.

In the case of `Br.NC1=NCC2c3ccccc3Sc3ccccc3N12` (centres unmarked) [Example 1(i), 3-amino-1,13b-dihydro-dibenzo[b,f]imidazo[1,5-d][1,4]-thiazepine hydrobromide], in data set [1], the ED50 worked out at 3.8 mg/kg.

With `NC1=NCC2c3cc(Cl)ccc3Oc3ccccc3N12` (centres unmarked) [Example 1(d), 3-amino-12-chloro-1,13b-dihydro[b,f]imidazo[1,5-d][1,4]oxazepine hydrobromide], the ED50 in data set [1] came out at 2.5 mg/kg. For `NC1=NCC2c3ccccc3Cc3ccccc3N12` (centres unmarked) [Example 1, 3-Amino-9,13b-dihydro-1H-dibenzo[c,f]imidazo[1,5-a]azepine hydrobromide], the ED50 in data set [1] came out at 6 mg/kg; in data set [2] it was 0.052 mg/kg. Take `Br.NC1=NCC2c3cc(Cl)ccc3Sc3ccccc3N12` (centres unmarked) [Example 1(l), 3-amino-12-chloro-1,13b-dihydro-dibenzo[b,f]imidazo[1,5-d][1,4]thiazepine hydrobromide]: the ED50 in data set [1] was 5.4 mg/kg. As to `Br.NC1=NCC2c3ccccc3Oc3ccccc3N12` (centres unmarked) [Example 1(c), 3-amino-1,13b-dihydro-dibenzo[b,f]imidazo[1,5-d][1,4]-oxazepine hydrobromide], the ED50 in data set [1] stood at 1.1 mg/kg. The compound further had an LD50 in data set [3] of 340 mg/kg. In the case of `Cl.NC1=NCC2c3ccccc3Cc3cc(Cl)ccc3N12` (centres unmarked) [Example 1(a), 3-amino-7-chloro-9,13b-dihydro-1H-dibenzo[c,f]-imidazo[1,5-a]azepine hydrochloride], the ED50 in data set [1] came out at 0.96 mg/kg.
